Test results published in patent publication US11154529B2, “Phosphaplatin liquid formulations” (Phosplatin Therapeutics Inc., priority 2016, dated 2021).

Assay: Ready-to-use formulation stability at 2-8° C., 5 mg/mL (R,R)-pyrodach-2 in 10 mM Bicarbonate Buffer at pH 8.6, 10 mL vials
Format: physicochemical

## O=P1(O)OP(=O)(O)[O][Pt]2([NH][C@@H]3CCCC[C@H]3[NH]2)[O]1 (stereo partly drawn) [(R,R)-pyrodach-2, (R,R)-trans-1,2-cyclohexanediamine-(dihydrogenpyrophosphato)platinum(II)]
1 month
  Potency (Assay): 99.1%
  Purity (% Area): 97.85%
  Unknown Impurities RRT~0.29: 0.14%
  Unknown Impurities RRT~0.35: ND (ND = Not Detected, or <0.05%)
  Unknown Impurities RRT~0.41: 0.05%
  Unknown Impurities RRT~0.49: 0.55%
  Unknown Impurities RRT~0.59: 0.08%
  Unknown Impurities RRT~0.73: 1.14%
  Unknown Impurities RRT~1.51: ND (ND = Not Detected, or <0.05%)
  Unknown Impurities RRT~2.82: ND (ND = Not Detected, or <0.05%)
  Unknown Impurities RRT~3.44: ND (ND = Not Detected, or <0.05%)
  pH: 8.73
1 week
  Potency (Assay): 101.9%
  Purity (% Area): 98.02%
  Unknown Impurities RRT~0.29: 0.10%
  Unknown Impurities RRT~0.35: ND (ND = Not Detected, or <0.05%)
  Unknown Impurities RRT~0.41: ND (ND = Not Detected, or <0.05%)
  Unknown Impurities RRT~0.49: 0.60%
  Unknown Impurities RRT~0.59: ND (ND = Not Detected, or <0.05%)
  Unknown Impurities RRT~0.73: 1.11%
  Unknown Impurities RRT~1.51: ND (ND = Not Detected, or <0.05%)
  Unknown Impurities RRT~2.82: ND (ND = Not Detected, or <0.05%)
  Unknown Impurities RRT~3.44: ND (ND = Not Detected, or <0.05%)
  pH: 8.57
2 month
  Potency (Assay): 102.4%
  Purity (% Area): 97.58%
  Unknown Impurities RRT~0.29: 0.21%
  Unknown Impurities RRT~0.35: ND (ND = Not Detected, or <0.05%)
  Unknown Impurities RRT~0.41: 0.11%
  Unknown Impurities RRT~0.49: 0.62%
  Unknown Impurities RRT~0.59: 0.15%
  Unknown Impurities RRT~0.73: 1.03%
  Unknown Impurities RRT~1.51: ND (ND = Not Detected, or <0.05%)
  Unknown Impurities RRT~2.82: ND (ND = Not Detected, or <0.05%)
  Unknown Impurities RRT~3.44: 0.06%
  pH: 8.76
2 week
  Potency (Assay): 100.5%
  Purity (% Area): 97.99%
  Unknown Impurities RRT~0.29: 0.12%
  Unknown Impurities RRT~0.35: ND (ND = Not Detected, or <0.05%)
  Unknown Impurities RRT~0.41: ND (ND = Not Detected, or <0.05%)
  Unknown Impurities RRT~0.49: 0.63%
  Unknown Impurities RRT~0.59: 0.06%
  Unknown Impurities RRT~0.73: 1.14%
  Unknown Impurities RRT~1.51: ND (ND = Not Detected, or <0.05%)
  Unknown Impurities RRT~2.82: ND (ND = Not Detected, or <0.05%)
  Unknown Impurities RRT~3.44: ND (ND = Not Detected, or <0.05%)
  pH: 8.65
3 month
  Potency (Assay): 102.3%
  Purity (% Area): 97.76%
  Unknown Impurities RRT~0.29: 0.29%
  Unknown Impurities RRT~0.35: ND (ND = Not Detected, or <0.05%)
  Unknown Impurities RRT~0.41: 0.13%
  Unknown Impurities RRT~0.49: 0.53%
  Unknown Impurities RRT~0.59: 0.15%
  Unknown Impurities RRT~0.73: 0.89%
  Unknown Impurities RRT~1.51: 0.06%
  Unknown Impurities RRT~2.82: 0.05%
  Unknown Impurities RRT~3.44: ND (ND = Not Detected, or <0.05%)
  pH: 8.95
3 week
  Potency (Assay): 100.0%
  Purity (% Area): 97.91%
  Unknown Impurities RRT~0.29: 0.14%
  Unknown Impurities RRT~0.35: ND (ND = Not Detected, or <0.05%)
  Unknown Impurities RRT~0.41: ND (ND = Not Detected, or <0.05%)
  Unknown Impurities RRT~0.49: 0.56%
  Unknown Impurities RRT~0.59: 0.07%
  Unknown Impurities RRT~0.73: 1.11%
  Unknown Impurities RRT~1.51: ND (ND = Not Detected, or <0.05%)
  Unknown Impurities RRT~2.82: ND (ND = Not Detected, or <0.05%)
  Unknown Impurities RRT~3.44: ND (ND = Not Detected, or <0.05%)
  pH: 8.67
4 month
  Potency (Assay): 103.5%
  Purity (% Area): 98.07%
  Unknown Impurities RRT~0.29: 0.15%
  Unknown Impurities RRT~0.35: ND (ND = Not Detected, or <0.05%)
  Unknown Impurities RRT~0.41: 0.16%
  Unknown Impurities RRT~0.49: 0.68%
  Unknown Impurities RRT~0.59: 0.09%
  Unknown Impurities RRT~0.73: 0.72%
  Unknown Impurities RRT~1.51: 0.05%
  Unknown Impurities RRT~2.82: 0.05%
  Unknown Impurities RRT~3.44: ND (ND = Not Detected, or <0.05%)
  pH: 8.83
6 month
  Potency (Assay): 100.4%
  Purity (% Area): 97.56%
  Unknown Impurities RRT~0.29: 0.23%
  Unknown Impurities RRT~0.35: ND (ND = Not Detected, or <0.05%)
  Unknown Impurities RRT~0.41: 0.23%
  Unknown Impurities RRT~0.49: 0.65%
  Unknown Impurities RRT~0.59: 0.21%
  Unknown Impurities RRT~0.73: 0.90%
  Unknown Impurities RRT~1.51: ND (ND = Not Detected, or <0.05%)
  Unknown Impurities RRT~2.82: ND (ND = Not Detected, or <0.05%)
  Unknown Impurities RRT~3.44: 0.09%
  pH: 8.84
9 month
  Potency (Assay): 102.2%
  Purity (% Area): 97.73%
  Unknown Impurities RRT~0.29: 0.15%
  Unknown Impurities RRT~0.35: ND (ND = Not Detected, or <0.05%)
  Unknown Impurities RRT~0.41: 0.33%
  Unknown Impurities RRT~0.49: 0.58%
  Unknown Impurities RRT~0.59: 0.24%
  Unknown Impurities RRT~0.73: 0.43%
  Unknown Impurities RRT~1.51: 0.05%
  Unknown Impurities RRT~2.82: 0.13%
  Unknown Impurities RRT~3.44: 0.16%
  pH: 9.07
12 month
  Potency (Assay): 100.3%
  Purity (% Area): 96.64%
  Unknown Impurities RRT~0.29: 0.13%
  Unknown Impurities RRT~0.35: 0.05%
  Unknown Impurities RRT~0.41: 0.47%
  Unknown Impurities RRT~0.49: 0.64%
  Unknown Impurities RRT~0.59: 0.27%
  Unknown Impurities RRT~0.73: 0.98%
  Unknown Impurities RRT~1.51: ND (ND = Not Detected, or <0.05%)
  Unknown Impurities RRT~2.82: 0.19%
  Unknown Impurities RRT~3.44: 0.28%
  pH: 8.97
Initial
  Potency (Assay): 100.3%
  Purity (% Area): 98.04%
  Unknown Impurities RRT~0.29: 0.11%
  Unknown Impurities RRT~0.35: ND (ND = Not Detected, or <0.05%)
  Unknown Impurities RRT~0.41: ND (ND = Not Detected, or <0.05%)
  Unknown Impurities RRT~0.49: 0.62%
  Unknown Impurities RRT~0.59: ND (ND = Not Detected, or <0.05%)
  Unknown Impurities RRT~0.73: 1.05%
  Unknown Impurities RRT~1.51: ND (ND = Not Detected, or <0.05%)
  Unknown Impurities RRT~2.82: ND (ND = Not Detected, or <0.05%)
  Unknown Impurities RRT~3.44: ND (ND = Not Detected, or <0.05%)
  pH: 8.60
